How the values were obtained:
[1] = test system: B-lymphocyte cancer cells (U266); assay: In vitro cytotoxicity, CellTiter-Glo 96 h, U266; conditions: Homo sapiens, U-266, read-out: Cytotoxic potency as free drug, IC50, U266
Experimental: (§1) In vitro potency was assessed on multiple cancer cell lines. All cell lines were authenticated by STR profiling at IDEXX Bioresearch and cultured for no more than 2 months after resuscitation. Cells cultured in log-phase growth were seeded for 24 hours in 96-well plates containing 150 μl RPMI 1640 supplemented with 20% FBS. Serial dilutions of antibody-drug conjugates in cell culture media were prepared at 4× working concentrations, and 50 μl of each dilution was added to the 96-well plates. Following addition of test articles, cells were incubated with test articles for 4 days at 37° C. After 96 hours, growth inhibition was assessed by CellTiter-Glo® (Promega, Madison, Wis.) and luminescence was measured on a plate reader.
(§2) Cell viability was determined by CellTiter-Glo staining after 96 h exposure to ADC. […] Ag1 is an antibody targeting a ubiquitous and readily internalizable antigen on cancer cells, Ag2 is cAC10 antibody targeting CD30(+) cancer cells, Ag3 is h1F6 antibody targeting CD70(+) cancer cells, Ag4 is hMEM102 antibody targeting CD48(+) cancer cells, Ag5 is h20F3 antibody targeting NTB-A expressing cancer cells, and h00 is a non-binding control antibody.

[2] = test system: renal carcinoma cells (786-O); assay: In vitro cytotoxicity, CellTiter-Glo 96 h, 786-O; conditions: Homo sapiens, 786-0, read-out: Cytotoxic potency (IC50 class), 786-O
Experimental: as §1
(§3) Cell viability was determined by CellTiter-Glo staining after 96 h exposure to ADC.

[3] = test system: pancreatic cancer cells (BxPC3); assay: In vitro cytotoxicity, CellTiter-Glo 96 h, BxPC3; conditions: Homo sapiens, BXPC-3, read-out: Cytotoxic potency (IC50 class), BxPC3
Experimental: as §1, §3

[4] = test system: acute promyelocytic leukemia cells (HL-60); assay: In vitro cytotoxicity, CellTiter-Glo 96 h, HL-60; conditions: Homo sapiens, HL-60, read-out: Cytotoxic potency (IC50 class), HL-60
Experimental: as §1, §2

[5] = test system: multiple myeloma cells (MM.1R); assay: In vitro cytotoxicity, CellTiter-Glo 96 h, MM.1R; conditions: read-out: Cytotoxic potency (IC50 class), MM.1R
Experimental: as §1, §2

[6] = test system: Burkitt's lymphoma cells (Ramos); assay: In vitro cytotoxicity, CellTiter-Glo 96 h, Ramos; conditions: Homo sapiens, read-out: Cytotoxic potency as free drug, IC50, Ramos
Experimental: as §1, §3

[7] = test system: Hodgkin's lymphoma cells (L540cy); assay: In vitro cytotoxicity, CellTiter-Glo 96 h, L540cy; conditions: read-out: Cytotoxic potency (IC50 class), L540cy
Experimental: as §1, §3

[8] = test system: acute myeloid leukemia cells (MOLM13); assay: In vitro cytotoxicity, CellTiter-Glo 96 h, MOLM13; conditions: Homo sapiens, MOLM-13, read-out: Cytotoxic potency as free drug, IC50, MOLM13
Experimental: as §1, §3

[9] = test system: multiple drug resistant acute promyelocytic leukemia cells (HL-60/RV); assay: In vitro cytotoxicity, CellTiter-Glo 96 h, HL60/RV; conditions: Homo sapiens, HL-60, read-out: Cytotoxic potency (IC50 class), HL60/RV
Experimental: as §1, §3

[10] = test system: melanoma cells (SK-MEL-5); assay: In vitro cytotoxicity, CellTiter-Glo 96 h, SK-MEL-5; conditions: Homo sapiens, SK-MEL-5, read-out: Cytotoxic potency as free drug, IC50, SK-MEL-5
Experimental: as §1, §2

[11] = test system: B-lymphocyte cancer cells (SU-DHL-4); assay: In vitro cytotoxicity, CellTiter-Glo 96 h, SU-DHL-4; conditions: Homo sapiens, SU-DHL-4, read-out: Cytotoxic potency as free drug, IC50, SU-DHL-4
Experimental: as §1, §2

Structure (SMILES) | IC50 [1] [nM] | IC50 [2] [nM] | IC50 [3] [nM] | IC50 [4] [nM] | IC50 [5] [nM] | IC50 [6] [nM] | IC50 [7] [nM] | IC50 [8] [nM] | IC50 [9] [nM] | IC50 [10] [nM] | IC50 [11] [nM]
CC[C@@]1(O)C(=O)OCc2c1cc1n(c2=O)Cc2c-1nc1cc3c(cc1c2CN)OCO3 [Compound 4, 7-methylamino Derivative-methylenedioxy camptothecin] | 1 to 10 | 1 to 10 | 1 to 10 | 10 to 100 | 1 to 10 | 1 to 10 | 1 to 10 | 1 to 10 | 10 to 100 | 1 to 10 | 0.1 to 1
CC[C@@]1(O)C(=O)OCc2c1cc1n(c2=O)Cc2c-1nc1cc3c(cc1c2CNC(=O)CO)OCO3 [Compound 4a] | 1 to 10 | 10 to 100 | 10 to 100 | 10 to 100 | 1 to 10 | 10 to 100 | 10 to 100 | 1 to 10 | 10 to 100 | 1 to 10 | 10 to 100
CC[C@@]1(O)C(=O)OCc2c1cc1n(c2=O)Cc2c-1nc1cc3c(cc1c2CNC(=O)CN)OCO3 [Compound 4b] | 10 to 100 | 100 to 1000 | 100 to 1000 | 100 to 1000 | 10 to 100 | 10 to 100 | 10 to 100 | 10 to 100 |  | 100 to 1000 | 10 to 100
CC[C@@]1(O)C(=O)OCc2c1cc1n(c2=O)Cc2c-1nc1cc3c(cc1c2CN(C)C(=O)CN)OCO3 [Compound 4c] | 10 to 100 | 10 to 100 | 100 to 1000 | 100 to 1000 | 10 to 100 | 1 to 10 | 10 to 100 | 1 to 10 | 100 to 1000 | 100 to 1000 | 10 to 100
CC[C@@]1(O)C(=O)OCc2c1cc1n(c2=O)Cc2c-1nc1cc3c(cc1c2CNC(=O)CCN)OCO3 [Compound 4d] | 10 to 100 | 100 to 1000 | 100 to 1000 | 100 to 1000 | 1 to 10 | 10 to 100 | 100 to 1000 | 10 to 100 |  | 10 to 100 | 10 to 100
CC[C@@]1(O)C(=O)OCc2c1cc1n(c2=O)Cc2c-1nc1cc3c(cc1c2CNC(=O)[C@@H](N)CCC(=O)O)OCO3 [Compound 4e] |  |  | 100 to 1000 |  |  | 100 to 1000 | 100 to 1000 | 100 to 1000 |  |  | 
CC[C@@]1(O)C(=O)OCc2c1cc1n(c2=O)Cc2c-1nc1cc3c(cc1c2CNC)OCO3 [Compound 5] | 1 to 10 | 1 to 10 | 10 to 100 | 10 to 100 | 1 to 10 | 1 to 10 | 1 to 10 | 1 to 10 | 10 to 100 | 1 to 10 | 1 to 10
CCNCc1c2c(nc3cc4c(cc13)OCO4)-c1cc3c(c(=O)n1C2)COC(=O)[C@]3(O)CC [Compound 5a] | 1 to 10 | 1 to 10 | 1 to 10 | 10 to 100 | 1 to 10 | 1 to 10 | 1 to 10 | 1 to 10 | 1 to 10 | 1 to 10 | 1 to 10
CC[C@@]1(O)C(=O)OCc2c1cc1n(c2=O)Cc2c-1nc1cc3c(cc1c2CN(C)C1CCCC[C@H]1NC)OCO3 (stereo partly shown) [Compound 5aa] | 10 to 100 | 10 to 100 | 100 to 1000 | 100 to 1000 | 10 to 100 | 1 to 10 | 10 to 100 | 10 to 100 | 100 to 1000 | 10 to 100 | 10 to 100
CC[C@@]1(O)C(=O)OCc2c1cc1n(c2=O)Cc2c-1nc1cc3c(cc1c2CNc1ccccc1)OCO3 [Compound 5b] | 1 to 10 | 1 to 10 | 1 to 10 | 10 to 100 | 1 to 10 | 0.1 to 1 | 0.1 to 1 | 10 to 100 | 1 to 10 | 1 to 10 | 0.1 to 1
CC[C@@]1(O)C(=O)OCc2c1cc1n(c2=O)Cc2c-1nc1cc3c(cc1c2CNC(C)C)OCO3 [Compound 5c] | 1 to 10 | 1 to 10 | 1 to 10 | 1 to 10 | 1 to 10 | 0.1 to 1 | 1 to 10 | 1 to 10 | 1 to 10 | 1 to 10 | 1 to 10
CC[C@@]1(O)C(=O)OCc2c1cc1n(c2=O)Cc2c-1nc1cc3c(cc1c2CNC1CCCCC1)OCO3 [Compound 5d] | 1 to 10 | 1 to 10 | 1 to 10 | 10 to 100 | 1 to 10 | 1 to 10 | 1 to 10 | 1 to 10 | 1 to 10 | 1 to 10 | 1 to 10
CC[C@@]1(O)C(=O)OCc2c1cc1n(c2=O)Cc2c-1nc1cc3c(cc1c2CNCc1ccc(N)cc1)OCO3 [Compound 5e] | 10 to 100 | 10 to 100 | 10 to 100 | 10 to 100 | 1 to 10 | 1 to 10 | 1 to 10 | 1 to 10 | 100 to 1000 | 10 to 100 | 1 to 10
CC[C@@]1(O)C(=O)OCc2c1cc1n(c2=O)Cc2c-1nc1cc3c(cc1c2CNCCCCO)OCO3 [Compound 5f] | 1 to 10 | 1 to 10 | 10 to 100 | 10 to 100 | 1 to 10 | 1 to 10 | 1 to 10 | 1 to 10 | 100 to 1000 | 1 to 10 | 1 to 10
CC[C@@]1(O)C(=O)OCc2c1cc1n(c2=O)Cc2c-1nc1cc3c(cc1c2CN1CCOCC1)OCO3 [Compound 5g] | 1 to 10 | 1 to 10 | 1 to 10 | 1 to 10 | 1 to 10 | 0.1 to 1 | 1 to 10 | 1 to 10 | 1 to 10 | 1 to 10 | 1 to 10
CC[C@@]1(O)C(=O)OCc2c1cc1n(c2=O)Cc2c-1nc1cc3c(cc1c2CN1CCN(C)CC1)OCO3 [Compound 5h] | 10 to 100 | 1 to 10 | 10 to 100 | 10 to 100 | 1 to 10 | 1 to 10 | 1 to 10 | 1 to 10 | 10 to 100 | 10 to 100 | 1 to 10
CC[C@@]1(O)C(=O)OCc2c1cc1n(c2=O)Cc2c-1nc1cc3c(cc1c2CNCC(C)C)OCO3 [Compound 5i] | 1 to 10 | 1 to 10 | 1 to 10 | 10 to 100 | 1 to 10 | 1 to 10 | 1 to 10 | 1 to 10 | 1 to 10 | 1 to 10 | 1 to 10
CC[C@@]1(O)C(=O)OCc2c1cc1n(c2=O)Cc2c-1nc1cc3c(cc1c2CNCc1ccccc1)OCO3 [Compound 5j] | 1 to 10 | 1 to 10 | 1 to 10 | 10 to 100 | 1 to 10 | 1 to 10 | 1 to 10 | 1 to 10 | 1 to 10 | 1 to 10 | 1 to 10
CC[C@@]1(O)C(=O)OCc2c1cc1n(c2=O)Cc2c-1nc1cc3c(cc1c2CNCCNC(C)C)OCO3 [Compound 5m] | 10 to 100 | 10 to 100 | 100 to 1000 | 100 to 1000 | 10 to 100 | 1 to 10 | 10 to 100 | 10 to 100 |  | 100 to 1000 | 10 to 100
CC[C@@]1(O)C(=O)OCc2c1cc1n(c2=O)Cc2c-1nc1cc3c(cc1c2-c1ccc(F)cc1)OCO3 [Compound 6] | 1 to 10 | 1 to 10 | 1 to 10 |  | 1 to 10 | 0.1 to 1 | 0.1 to 1 | 0.1 to 1 | 0.1 to 1 | 1 to 10 | 0.1 to 1
CCC(C)c1c2c(nc3cc4c(cc13)OCO4)-c1cc3c(c(=O)n1C2)COC(=O)[C@]3(O)CC (stereo partly shown) [Compound 6b] | 1 to 10 | 1 to 10 | 1 to 10 |  | 1 to 10 | 1 to 10 | 1 to 10 | 1 to 10 | 1 to 10 | 1 to 10 | 1 to 10
CC[C@@]1(O)C(=O)OCc2c1cc1n(c2=O)Cc2c-1nc1cc3c(cc1c2C(C)C)OCO3 [Compound 6c] | 1 to 10 | 1 to 10 | 1 to 10 |  | 1 to 10 | 0.1 to 1 | 1 to 10 | 1 to 10 | 1 to 10 | 1 to 10 | 0.1 to 1

— US20190343828A1, “CAMPTOTHECIN PEPTIDE CONJUGATES” (SEATTLE GENETICS, INC., priority 2018, published 2019)
